Test: Human HepG2 cell viability assay in 384 well format
Type: toxicity, cell-based
Set-up: dose 125 nL, time 70.5 hour; concentration not given beside the values
Settings: HepG2 cells, read-out: Inhibition

| SMILES | cytotoxicity at 70.5 h [%] |
| --- | --- |
| Cc1cc(C)n(CC(C)NCc2nncn2C2CCCCC2)n1 (centres undefined) | -7.66 |
| CCc1nnc(CN(C)c2nccc(CCC(F)(F)F)n2)o1 | -9.32 |
| Cc1cc(NC(=O)N(C)CCN2CCN(c3ccccc3)CC2)on1 | -2.89 |
| CCCn1cc(CN2CCCC2c2cccc(-n3ccnc3)n2)cn1 (centres undefined) | -7.28 |
| CC(Cn1cccn1)NC(=O)NCCc1cnn(C)c1 (centres undefined) | -16.3 |
| CC(C)c1nn(C)cc1CNCc1cccc(N(C)C)c1 | 6.7 |
| CN(Cc1ccncc1)Cc1nccn1Cc1ccccc1 | -5.12 |
| O=C(NCCN1CCCC(CO)C1)c1ccc2scnc2c1 (centres undefined) | -13.1 |
| Cn1c(=O)oc2ccc(NC(=O)N3CCc4ccccc4C3)cc21 | 2.84 |
| CCN(Cc1ccc2c(c1)OCCO2)C(=O)Cn1cccnc1=O | -5.36 |
| COc1cc(F)ccc1N(C)Cc1cccnc1 | 15.7 |
| Cc1ccc(S(=O)(=O)N2CCN(CCCO)CC2)s1 | -2.4 |
| CC(C)COCC1CN(Cc2ccc3c(c2)OCO3)Cc2ncn(C)c21 (centres undefined) | 45.7 |
| Cc1noc(C)c1NS(=O)(=O)c1cc(Cl)c(Cl)c(C(=O)O)c1 | -9.2 |
| Cc1cc(C2NC(=O)CN2Cc2ccc(Br)cc2)cc(C)c1O (centres undefined) | 0.666 |
| CCc1cnc(NCCSc2cnn[nH]2)nc1 | 28.2 |
| COc1ccc(N2CCN(C(=O)OC(C)(C)C)C(C(=O)O)C2)cc1 (centres undefined) | -0.702 |
| CCc1cnc(NC2CCc3c(ccc(=O)n3C)C2)nc1 (centres undefined) | -5.8 |
| NC(=O)c1csc(N2CCN(C3CCc4ccccc4C3)CC2)n1 (centres undefined) | -14.7 |
| COc1cc(CO)c(OC)c2c1OCO2 | -8.39 |
| Cc1nnc(NCC2(c3ccccc3)CC2)c(C#N)c1C | -0.882 |
| CCN(CC)C(=O)CCCNC(=O)c1csc(NC2CC2)n1 | -9.34 |
| CCC(CC)(CNC(=O)OC(C)(C)C)NC(=O)c1cnccn1 | 0.78 |

| SMILES | cytotoxicity at 70.5 h [%] |
| --- | --- |
| COCCN(C)CC(=O)N1C[C@H]2CC[C@@H]1CN(C(=O)c1ccncc1)C2 | -10.1 |
| Cc1cccc(OC2CCN(C(=O)c3ccc4c(c3)OCO4)CC2)n1 | -7.71 |
| CSc1nccc(NCc2cc3n(n2)CCCN(S(C)(=O)=O)C3)n1 | -12.4 |
| CC(C)c1n[nH]c(C(=O)Nc2ccncc2)c1Br | 3.41 |
| CCN(C(=O)CN1CCCC1c1c(C)nn(C)c1OC)C1CC1 (centres undefined) | -6.09 |
| O=c1c2cnc(N3CCCC3)nc2ccn1-c1cccc(C(F)(F)F)c1 | -5.84 |
| Cn1cc(CNC2CCS(=O)(=O)C2)c(-c2cc3ccccc3o2)n1 (centres undefined) | 5.22 |
| CNC(=O)COc1c(C(C)=O)ccc(Cl)c1Cl | -8.98 |
| Cc1ccc(C(NC(=O)C2CC2)c2cccc(S(C)(=O)=O)c2)cc1 (centres undefined) | -4.47 |
| Cn1cc(CC2CCN(C(=O)NCc3cccc(C#N)c3)C2)cn1 (centres undefined) | -5 |
| CSC1(CNc2ccc(Br)cn2)CCOCC1 | -2.33 |
| COc1cc(CN2CC[C@@H](N3CCCCCC3)[C@H](O)C2)cc(Cl)c1OC | -4.33 |
| CCOCCCNC(=O)Cc1cccs1 | -1.71 |
| Cc1cccc(Nc2nccnc2C2CCCN(CC(=O)N(C)C)C2)n1 (centres undefined) | -7.55 |
| O=c1[nH]nc(SCC2CCCO2)n1C1CC1 (centres undefined) | -6.11 |
| CC(C)(C)S(=O)(=O)CCNC(=O)c1ccc2cc[nH]c2c1 | -0.00861 |
| Cc1cnn(CCNCc2nccn2Cc2ccccc2)c1 | 1.16 |
| COc1ccc(NC(=O)CCSc2ccc3nncn3n2)c(OC)c1 | -11.8 |
| COCCCN(C)C(=O)c1cccc(Nc2cnccn2)c1 | 24.1 |
| O=C(c1sccc1Br)N(Cc1cccnc1)C1CC1 | -13.1 |
| Cc1noc(C)c1CN1CCC2(CC1)C(c1cnn(C)c1)CC(=O)N2C (centres undefined) | -7.83 |
| COc1ccccc1CCC(=O)N1CCCC(OCc2cccnc2)C1 (centres undefined) | 26.8 |
| CN(C)c1cc(CNC(=O)c2ccc(F)cc2F)ccn1 | -10.5 |

| SMILES | cytotoxicity at 70.5 h [%] |
| --- | --- |
| COc1cc(N2C[C@H]3CN(C(=O)c4cccnc4)C[C@H]3C2)ncn1 | -2.8 |
| CC(NCc1ccncc1)c1cc(F)ccc1N1CCN(C)CC1 (centres undefined) | -4.5 |
| O=S(=O)(CCN1CCOC(Cn2cncn2)C1)c1ccccc1 (centres undefined) | -17.9 |
| CCN(CC)c1ccc(NC(=O)NCC2(C(N)=O)CCOCC2)cn1 | 1.3 |
| Cc1cnn(CC2CCCCN2Cc2ncc(C(C)(C)C)o2)c1 (centres undefined) | -7.03 |
| Cc1ccc(C)c(-n2cc(CN3CC[C@@H](O)C3)c(-c3ccccc3)n2)c1 | -0.782 |
| CC(C)NC(=O)[C@@H]1Cc2[nH]cnc2CN1CCCc1ccccc1 | 6.69 |
| CN(C)CC(=O)N1Cc2cc(N(C)C)ccc2C1c1cnco1 (centres undefined) | -12.7 |
| Clc1cnccc1N1CCCC2(CCCOC2)C1 (centres undefined) | 1.82 |
| O=C(NCCn1cccc1)C1CCCN(C2CCCC2)C1 (centres undefined) | 7.15 |
| CCC(CC)c1cc(CNC(=O)N2CCC(CO)CC2)on1 | -4.82 |
| O=C1CCCN1CCc1noc(-c2ccc3[nH]cnc3c2)n1 | -8.29 |
| CC1(C)OC(=O)N(CCCOc2ccc(F)cc2)C1=O | -11.6 |
| CCn1c(C)cc(C(=O)N2CCc3nnc(N)cc3C2)c1C | -0.105 |
| COc1ccc(S(=O)(=O)N2CCc3ccc(F)cc32)cc1C(=O)O | 1.61 |
| O=S(=O)(CCCNC1CCc2ncnn2C1)c1ccccc1 (centres undefined) | 23.5 |
| CC(O)c1cccc(N2CCC3(CCC(=O)N(CC(N)=O)C3)CC2)n1 (centres undefined) | -11.2 |
| Cc1cc(N2CCCC(c3nncn3C3CC3)C2)ncn1 (centres undefined) | -2.44 |
| Cn1cc(C(=O)CC2CCCN2C(=O)c2n[nH]c3ccccc23)cn1 (centres undefined) | 8.22 |
| COc1cnc(CSc2nnc(C)s2)cc1OCC(=O)NC1CCCC1 | 2.36 |
| CN1CC(NC(=O)CCCc2cc(Cl)sc2Cl)CCC1=O (centres undefined) | -6.53 |
| c1cc(-c2noc(CN3CCc4c(ncn4C4CC4)C3)n2)cs1 | -20.1 |
| CC(C)c1nc(CC(=O)Nc2nc(CN3CCCCCC3)cs2)cs1 | 16.6 |

| SMILES | cytotoxicity at 70.5 h [%] |
| --- | --- |
| Cc1cc(Nc2nc(C)cs2)nc(C2CCCCN2CCO)n1 (centres undefined) | 32.4 |
| COc1cccc([C@H]2CN(C(=O)c3ccccc3)[C@@H]3CCCN[C@H]23)c1 | 15.6 |
| CN(C)CCN1CCOCC12CCN(C(=O)C1CC1)CC2 | -10.1 |
| Cn1cc(CN2CC3(CCN(C(=O)c4ccoc4)C3)C2)cn1 | -6.02 |
| CO[C@@H]1CCN(S(=O)(=O)N(C)C)[C@@H]2CN(Cc3cccnc3)C[C@@H]21 | -4.13 |
| CS(=O)(=O)NC1CCCN(C(=O)NCc2cccnc2)C1 (centres undefined) | -0.126 |
| CCOC1COC2(CCN(Cc3ccc(F)cc3)CC2)C1 (centres undefined) | -20.1 |
| O=C(NS(=O)(=O)c1cccc(C(F)(F)F)c1)c1cscn1 | -10.3 |
| CC(C)C(NC(=O)c1ccc(=O)[nH]c1)c1nnc2n1CCNCC2 (centres undefined) | -6.19 |
| COc1cccc(N2CCN(C(=O)CN(C)c3cnccn3)CC2)c1 | -1.38 |
| Cc1occc1CNC(=O)N1CCC(Cc2cnn(C)c2)C1 (centres undefined) | -2.55 |
| CC(C)c1nc(CN(C)Cc2ccc(O)c(Cl)c2)cs1 | -13.5 |
| Cc1noc(C)c1CN1CCOC2(CCCN(c3nccs3)C2)C1 (centres undefined) | 29.8 |
| CC(NC(=O)C1CCN(S(N)(=O)=O)CC1)c1cccc(OC(F)F)c1 (centres undefined) | -1.7 |
| Cn1ncc2c(N3CCN(CCC(N)=O)CC3)nc(C3CCCC3)nc21 | -9.84 |
| N#Cc1ccc(OC2CCN(CC(=O)NCC(F)(F)F)CC2)cc1 | -12.8 |
| CC(C)(C)NC[C@@H]1CCC[C@@H]2CN(Cc3csnn3)C[C@@H]21 | -2.73 |
| CC(CNC1CCN(Cc2ccncc2)CC1)c1ccc(F)cc1F (centres undefined) | -11 |
| O=C(CCc1cc2n(n1)CCCNC2)N1CCN(C2CCCC2)C(=O)C1 | -7.76 |
| CNC(=O)CN1CCCC12CCN(Cc1c[nH]cn1)CC2 | -24.2 |
| Cc1cccc(CN2CCc3[nH]nc(C(=O)N4CCNC(=O)C4)c3C2)n1 | -10.5 |
| Cc1cc(Cl)ccc1S(=O)(=O)NCC(C)N1CCN(C)CC1 (centres undefined) | -0.894 |
| Cc1nccn1-c1cccc(C2CCCN(C(=O)c3cc[nH]n3)C2)n1 (centres undefined) | 24.4 |

| SMILES | cytotoxicity at 70.5 h [%] |
| --- | --- |
| O=C(Nc1cc(Cl)ccc1Cl)NC1CCN(C2CCOC2)CC1 (centres undefined) | 25.3 |
| O=C(CC1CC1)N1CCc2ncc(Cn3cncn3)n2CC1 | -14.1 |
| N#Cc1ccc(CCC(=O)N2CCC(CN3CCOCC3)CC2)cc1 | 23.1 |
| CCc1nnc2n1CC(CNCC1CCCC1)CC2 (centres undefined) | -1.75 |
| O=C(CCCn1cncn1)N1CCC2(CC1)[C@H](O)C[C@@H]2OCCO | -6.43 |
| Cc1nc(NC(=O)C2CCCN(C(N)=O)C2)sc1-c1ccccc1 (centres undefined) | 28.7 |
| O=c1c2sccc2nc2n1CCN(Cc1cc(F)ccc1F)CC2 | -7.47 |
| CCCn1cc(C(=O)NCCS(N)(=O)=O)c2ccccc21 | 15.9 |
| Cc1ccc(NC2CCN(C(=O)CCc3nccs3)CC2)nn1 | -12.3 |
| CN(C)c1cc(C(=O)N2CCCC2)ccn1 | -10 |
| O=C(C[C@@H]1COC[C@H]2CN(C3CCCC3)C[C@@H]12)N1CCCCO1 | -0.83 |
| CC(=O)NC1CCCN(C(=O)NCc2cccnc2N(C)C)C1 (centres undefined) | 4.39 |
| O=c1ccn([C@H]2CCN(Cc3ncc[nH]3)CC[C@@H]2O)c(=O)[nH]1 | -4.85 |
| CC(=O)Nc1ccc(C(=O)N(C)C(C)Cc2cc(C)ccn2)cn1 (centres undefined) | 1.81 |
| O=c1[nH]c2nc(N3CCSCC3)ncc2c(=O)n1-c1ccc(F)cc1 | -16.9 |
| CC(C)(C)NC(=O)CCn1ncc2c(Cl)cccc21 | -5.97 |
| COc1ccc(C2=CCN(C(=O)C3CCC3)CC2)cc1 | -1.58 |
| Cc1cccc(NC2CCN(C(=O)Nc3ccccn3)CC2)n1 | 2.1 |
| Cc1nccc(NCc2cc3n(n2)CCCN(C(=O)C2CCC2)C3)n1 | 13.7 |
| Cc1nc(C)c(CCN2CCC(Oc3ccccc3F)CC2)s1 | 8.23 |
| O=C(NC1CCN(C2CC2)CC1)N1CCN(c2cnccn2)CC1 | 3.56 |
| Cc1cc(C2CCC2)nc(NCC(C)(C)N2CCCC2)n1 | -16.9 |
